Target: T1, LmrR (Lactococcus cremoris, UniProt A2RI36)
T1 construct: gene llmg_0323; C-terminal His6-tagged LmrR (homodimer)
Assay: ITC ([…] stoichiometry, […] °C); supported by NMR titration
Assay type: binding

T1 sequence (A2RI36 entry or part of it): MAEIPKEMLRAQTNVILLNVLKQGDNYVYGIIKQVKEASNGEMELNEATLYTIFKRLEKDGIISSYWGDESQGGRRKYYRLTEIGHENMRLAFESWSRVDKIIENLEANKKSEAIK

- Kd: 330 nM
Structure (SMILES): Cc1cc2nc3c(=O)[nH]c(=O)nc-3n(C[C@H](O)[C@H](O)[C@H](O)CO)c2cc1C [riboflavin]

Reference: paper PMC5428041, “Dynamic equilibrium on DNA defines transcriptional regulation of a multidrug binding transcriptional repressor, LmrR” (Scientific Reports, 2017)
